IC50 data for 28 compounds are collected here from patent US20180044343A1, “BICYCLIC IMIDAZOLO DERIVATIVE” (Sumitomo Dainippon Pharma Co., Ltd., priority 2015, published 2018).

Holding throughout (format): biochemical
Assay [1] addresses T1, PDE1B (Homo sapiens, UniProt Q01064). Kind of assay: In vitro HTRF PDE1 inhibition assay (PDE1B). Particulars: in vitro PDE1B HTRF Assay; read-out: IC50.
In assay [2] the target is T2, PDE1C (Homo sapiens, UniProt Q14123). Kind of assay: In vitro SPA PDE1 inhibition assay (PDE1C). Conditions: [3H]-cGMP 100 nM. The protocol: (§1) The commercially available Scintillation Proximity Assay (SPA) system (Perkinelmer) was used for PDE1 inhibition assays. SPA Yttrium Silicate beads preferentially binds to non-cyclic GMP compared to cyclic GMP (cGMP) in the presence of zinc sulphate, which enables to measure the amount of enzyme reaction product ([^3H]-GMP) by scintillation counting.
(§2) For PDE1 inhibition assay, 10 μl of the test compounds in 5% dimethyl sulfoxide diluted in SPA assay buffer (1 mM CaCl2, 10 mM MgSO4, 10 mM Tris-HCl, pH 7.4) were placed in a 96-well white microtiter plate, and 20 μl of [^3H]-cGMP solution (100 nM final concentration, Perkinelmer) in SPA assay buffer was added. Assays were initiated by adding 20 μl of PDE (1A3, 1B or 1C) enzyme solution including calmodulin (final concentration 1 μg/ml). After 30 min incubation at 27° C., the reaction was stopped by the addition of 50 μl of a suspension of 10 mg/ml SPA beads in 18 mM ZnSO4. The microtiter plates were settled for 60 min, and then were measured in a TopCount NXT scintillation counter (PerkinElmer). IC50 values were determined from sigmoidal curves by plotting the percentage of PDE activity versus log compound concentration. IC50 was defined as the concentration of the test compounds required to inhibit the cyclic nucleotide hydrolyzing activities of tested PDEs by 50%.

Assay [3] addresses T3, PDE1A3 (Homo sapiens, UniProt P54750). Kind of assay: In vitro SPA PDE1 inhibition assay (PDE1A3). Conditions: PDE1A3, [3H]-cGMP 100 nM. The protocol:
as §1, §2

Assay [4] addresses T1, PDE1B. Kind of assay: In vitro SPA PDE1 inhibition assay (PDE1B). Conditions: [3H]-cGMP 100 nM. The protocol: as §1, §2
Assay [5] deals with T2, PDE1C. Kind of assay: In vitro HTRF PDE1 inhibition assay (PDE1C). Particulars: 100 nM cyclic GMP. From the text:
(§3) An exemplary procedure for the in vitro Homogenous Time Resolved Fluorescence assay, which can be used to determine the inhibitory action of compounds of the present invention toward PDE1 or its isoforms, follows.
(§4) The HTRF PDE1 assay utilized the HTRF (Homogenous Time Resolved Fluorescence) technology, which is based on the competition between unlabeled cyclic nucleotide and cyclic nucleotide labeled with XL665 for the binding to cyclic nucleotide-specific antibody labeled with cryptate. The HTRF signal is thus inversely proportional to the concentration of cyclic nucleotide being measured. Since phosphodiesterases break down cyclic nucleotides, the HTRF signal was used to determine PDE activity.
(§5) The Cisbio cGMP HTRF assay kit (Cat no: 62GM2PEC) was utilized. Cyclic GMP was diluted to 200 nM in HTRF assay buffer (1 mM CaCl2, 10 mM MgCl2, 10 mM Tris-HCl, 0.1% BSA, pH 7.4). 10 μl of compound or DMSO was diluted in 200 nM cyclic GMP solution and added to wells of a 96 well white plate to give 100 nM cyclic GMP in 1% DMSO final concentration. PDE (1A3, 1B or 1C) was diluted to 2× working concentration in HTRF assay buffer with 2 μg/ml Calmodulin, and 10 μl was added to initiate the reaction. The plate was then incubated for 45 minutes at 27° C. d2-Labelled cyclic GMP and anti-cGMP cryptate were diluted in 50 mM phosphate buffer, 0.8 M KF, 1% Triton X100, 0.2% BSA, pH 7.0. Following incubation 10 μl d2-cGMP, then 10 μl anti cGMP cryptate were added to each well and the plate was incubated for 60 minutes at room temperature. The plate was then read on Perkin Elmer EnVision at 2 different FRET readings ex/em 340 nm/665 nm and 340 nm/615 nm.
(§6) Compounds having an IC50 of <1 μM are denoted as +++. Compounds having an IC50 of 1-10 μM are denoted as ++. Compounds having an IC50 of 10-100 μM are denoted as +.
On the technique in general: TR-FRET usually uses a lanthanide donor and a delayed reading to cut background.

Assay [6] concerns the target T3, PDE1A3. Kind of assay: In vitro HTRF PDE1 inhibition assay (PDE1A3). Conditions: PDE1A3, 100 nM cyclic GMP.
Description: as §3, §4, §5, §6

SMILES strings stand for the structures.

T1 sequence (Q01064 whole entry): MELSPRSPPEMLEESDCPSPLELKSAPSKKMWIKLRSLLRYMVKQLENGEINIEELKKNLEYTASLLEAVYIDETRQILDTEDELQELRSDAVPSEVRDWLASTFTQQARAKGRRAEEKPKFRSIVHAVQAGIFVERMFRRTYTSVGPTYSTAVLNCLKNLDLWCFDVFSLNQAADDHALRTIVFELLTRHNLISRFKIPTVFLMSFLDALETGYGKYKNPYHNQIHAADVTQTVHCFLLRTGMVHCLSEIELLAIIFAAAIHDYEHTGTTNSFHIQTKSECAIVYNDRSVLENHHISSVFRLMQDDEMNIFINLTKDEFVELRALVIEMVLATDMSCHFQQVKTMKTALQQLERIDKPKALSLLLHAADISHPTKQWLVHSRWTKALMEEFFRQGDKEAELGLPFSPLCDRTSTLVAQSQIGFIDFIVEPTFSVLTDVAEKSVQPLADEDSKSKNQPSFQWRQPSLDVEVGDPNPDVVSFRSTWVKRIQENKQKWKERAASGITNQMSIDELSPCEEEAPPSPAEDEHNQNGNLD

By IC50 is commonly meant the midpoint of a concentration-inhibition curve. As for `Cn1c(OCc2ccc(F)cc2)nn2c(C3CCOCC3)nc(F)c2c1=O` [Example 116, 5-Fluoro-2-[(4-fluorobenzyl)oxy]-3-methyl-7-(tetrahydro-2H-pyran-4-yl)imidazo[5,1-f][1,2,4]triazin-4(3H)-one], the IC50 at PDE1B [1] was less than 1 µM; at PDE1C [2], 0.771 µM; against PDE1A3 [3] it was 0.207 µM; at PDE1B [4], 0.084 µM; against PDE1C [5], less than 1 µM; against PDE1A3 [6], less than 1 µM.

`CO[C@H]1CC[C@H](Oc2nn3c(C4CCOCC4)ncc3c(=O)n2C)CC1` [Example 309]: the IC50 at PDE1B [1] is less than 1 µM; against PDE1C [5] it was 1 to 10 µM; against PDE1A3 [6], less than 1 µM.

`CCn1c(OC[C@H]2CC[C@H](C(F)(F)F)CC2)nn2c(C3CCOCC3)ncc2c1=O` [Example 251]: the half-maximal inhibitory concentration (IC50) at PDE1B [1], at PDE1C [5] and at PDE1A3 [6] was less than 1 µM in each case.

Turning to `Cn1c(OC2CCCCC2)nn2c(C3CCOCC3)ncc2c1=O` [Example 255, 2-(cyclohexyloxy)-3-methyl-7-(tetrahydro-2H-pyran-4-yl)imidazo[5,1-f][1,2,4]triazin-4(3H)-one], the half-inhibitory concentration (IC50) at PDE1B [1], on PDE1C [5] and against PDE1A3 [6] was less than 1 µM throughout.

In the case of `CNc1nn2c(C3CCOCC3)ncc2c(=O)n1Cc1ccccc1` [Example 200], the concentration for half-maximal inhibition (IC50) at PDE1B [1] was less than 1 µM; against PDE1C [2], 0.024 µM; against PDE1A3 [3], 0.133 µM; against PDE1B [4], 0.109 µM; on PDE1C [5] it was less than 1 µM; against PDE1A3 [6] it was less than 1 µM.

On to `CCc1nn2c(C3CCOCC3)ncc2c(=O)n1CC1CCC(F)(F)CC1` [Example 239, 3-[(4,4-Difluorocyclohexyl)methyl]-2-ethyl-7-(tetrahydro-2H-pyran-4-yl)imidazo[5,1-f][1,2,4]triazin-4(3H)-one], for which the IC50 at PDE1B [1] was less than 1 µM; at PDE1C [2], 0.125 µM; against PDE1A3 [3] it was 0.065 µM; against PDE1B [4], 0.079 µM; on PDE1C [5], less than 1 µM; on PDE1A3 [6] it was less than 1 µM.

For the compound `CO[C@H]1CC[C@@H](Oc2nn3c(C4CCOCC4)ncc3c(=O)n2C)CC1` [Example 312], the IC50 at PDE1B [1], against PDE1C [5] and against PDE1A3 [6] was less than 1 µM each time.

Turning to `CCO[C@H]1CC[C@@H](COc2nn3c(C4CCOCC4)ncc3c(=O)n2C)CC1` [Example 247], the IC50 at PDE1B [1], against PDE1C [5] and against PDE1A3 [6] was less than 1 µM throughout.

Consider `CCO[C@H]1CC[C@H](COc2nn3c(C4CCOCC4)ncc3c(=O)n2CC)CC1` [Example 249], for which the IC50 on PDE1B [1], against PDE1C [5] and against PDE1A3 [6] was less than 1 µM throughout.

Consider `CCn1c(OCCC2(C(F)(F)F)CC2)nn2c(C3CCOCC3)ncc2c1=O` [Example 283], for which the IC50 on PDE1B [1], at PDE1C [5] and on PDE1A3 [6] was less than 1 µM throughout.

Consider `COC[C@H]1CC[C@@H](Oc2nn3c(C4CCOCC4)ncc3c(=O)n2C)CC1` [Example 318], for which the IC50 at PDE1B [1], at PDE1C [5] and on PDE1A3 [6] was less than 1 µM in each case.

`CCn1c(OC[C@H]2CC[C@H](OC)CC2)nn2c(C3CCOCC3)ncc2c1=O` [Example 91]: the IC50 at PDE1B [1] is less than 1 µM; at PDE1C [2], 0.199 µM; against PDE1A3 [3], 0.074 µM; against PDE1B [4] it was 0.028 µM; against PDE1C [5], less than 1 µM; against PDE1A3 [6] it was less than 1 µM.

`COc1nn2c(C3CCOCC3)ncc2c(=O)n1C[C@H]1CC[C@@H](OC)CC1` [Example 101]: the IC50 at PDE1B [1] is less than 1 µM; against PDE1C [2], 0.192 µM; at PDE1A3 [3] it was 0.121 µM; against PDE1B [4] it was 0.096 µM; against PDE1C [5] it was less than 1 µM; on PDE1A3 [6] it was less than 1 µM.

Consider `Cn1c(OC2CCC(C)(C)CC2)nn2c(C3CCOCC3)ncc2c1=O` [Example 302], for which the concentration for half-maximal inhibition (IC50) on PDE1B [1], against PDE1C [5] and at PDE1A3 [6] was less than 1 µM throughout.

On to `CCO[C@H]1CC[C@H](Oc2nn3c(C4CCOCC4)ncc3c(=O)n2CC)CC1` [Example 315], for which the IC50 at PDE1B [1], at PDE1C [5] and on PDE1A3 [6] was less than 1 µM in each case.

As to `COc1nn2c(C3CCOCC3)ncc2c(=O)n1C[C@H]1CC[C@H](OC)CC1` [Example 253], the IC50 on PDE1B [1], against PDE1C [5] and against PDE1A3 [6] was less than 1 µM in each case.

For the compound `CCOC[C@H]1CC[C@H](Oc2nn3c(C4CCOCC4)ncc3c(=O)n2CC)CC1` [Example 258], the concentration for half-maximal inhibition (IC50) on PDE1B [1], against PDE1C [5] and against PDE1A3 [6] was less than 1 µM throughout.

Consider `CCn1c(OC2CCC(F)(F)CC2)nn2c(C3CCOCC3)ncc2c1=O` [Example 304, 2-[(4,4-difluorocyclohexyl)oxy]-3-ethyl-7-(tetrahydro-2H-pyran-4-yl)imidazo[5,1-f][1,2,4]triazin-4(3H)-one], for which the half-maximal inhibitory concentration (IC50) on PDE1B [1], on PDE1C [5] and at PDE1A3 [6] was less than 1 µM throughout.

For `CCn1c(O[C@H]2CC[C@@H](OC)CC2)nn2c(C3CCOCC3)ncc2c1=O` [Example 313], the 50% inhibitory concentration (IC50) on PDE1B [1], against PDE1C [5] and at PDE1A3 [6] was less than 1 µM in each case.

As to `CCn1c(O[C@H]2CC[C@H](OC)CC2)nn2c(C3CCOCC3)ncc2c1=O` [Example 310], the half-maximal inhibitory concentration (IC50) on PDE1B [1], against PDE1C [5] and against PDE1A3 [6] was less than 1 µM throughout.

For `CCn1c(O[C@H]2CC[C@H](COC)CC2)nn2c(C3CCOCC3)ncc2c1=O` [Example 317, 3-ethyl-2-{[trans-4-(methoxymethyl)cyclohexyl]oxy}-7-(tetrahydro-2H-pyran-4-yl)-imidazo[5,1-][1,2,4]triazin-4(3H)-one], the half-inhibitory concentration (IC50) is less than 1 µM at PDE1B [1]; 0.194 µM at PDE1C [2]; 0.042 µM at PDE1A3 [3]; 0.027 µM against PDE1B [4]; less than 1 µM against PDE1C [5]; less than 1 µM against PDE1A3 [6].

For the compound `CCn1c(O[C@H]2CC[C@H](C(F)(F)F)CC2)nn2c(C3CCOCC3)ncc2c1=O` [Example 306], the IC50 at PDE1B [1], at PDE1C [5] and at PDE1A3 [6] was less than 1 µM in each case.

Take `CCn1c(OCc2ccc(-c3ccc(OC)cc3)cc2)nn2c(C3CCOCC3)ncc2c1=O` [Example 83]: the IC50 on PDE1B [1] was less than 1 µM.

Consider `CC(C)c1ncc2c(=O)n(C)c(NC3CCc4ccccc43)nn12` (stereo not drawn) [Example 143], for which the half-maximal inhibitory concentration (IC50) on PDE1B [1] is less than 1 µM.

Consider `Cn1c(O[C@H]2CC[C@@H](C(F)(F)F)CC2)nn2c(C3CCOCC3)ncc2c1=O` [Example 307], for which the 50% inhibitory concentration (IC50) at PDE1B [1] was less than 1 µM.

Regarding `Cc1ccc(-c2nn3c(C4CCOCC4)ncc3c(=O)n2C)cc1` [Example 236, 3-Methyl-2-(4-methylphenyl)-7-(tetrahydro-2H-pyran-4-yl)imidazo[5,1-f][1,2,4]triazin-4(3H)-one], on PDE1B [1], the IC50 was less than 1 µM.

In the case of `CC(C)c1ncc2c(=O)n(C)c(N3CCC[C@@H]3c3ccc(Cl)cc3)nn12` [Example 164], the 50% inhibitory concentration (IC50) on PDE1B [1] is less than 1 µM.

Take `Cc1ccc([C@H]2CCCN2c2nn3c(C(C)C)ncc3c(=O)n2C)nc1` [Example 218, 3-Methyl-2-[(2R)-2-(5-methylpyridin-2-yl)pyrrolidin-1-yl]-7-(propan-2-yl)imidazo[5,1-f][1,2,4]triazin-4(3H)-one]: the concentration for half-maximal inhibition (IC50) on PDE1B [1] is less than 1 µM.
